This note sets out measurements from US20140134735A1, “Plant Cell Differentiation Promoter” (SHISEIDO COMPANY, LTD., priority 2011, published 2014).

Assay [1] deals with Spathiphyllum embryogenic calluses. As to the kind of experiment: Effect of KODA treatment time on differentiation from Spathiphyllum callus to adventitious embryo and germinants. The class given is cell-based. The settings on record: for Dehydrated adventitious embryo weight per flask: embryos recovered 6 weeks after planting in differentiation medium. As to the method: Cultured seedlings subcultured under conditions of 25° C. in a dark location (photosynthetic photon flux density: 5.7 μmole/m^2/sec, day length: 16 hours) in a solid medium obtained by adding 3% sucrose and 0.8% agar (Wako Pure Chemical Industries, Tokyo, Japan) to MS (Murashige and Skoog) medium placed in a flat box (internal volume: 300 ml) manufactured by Asahi Techno Glass followed by adjusting the pH to 5.8 were used as cultured Spathiphyllum seedlings (variety: Double Take).
Sucrose (3%), 2,4-dichlorophenoxyacetic acid (4 ppm), benzyladenine (BA) (0.2 ppm), casein acid hydrolysate (100 ppm) and 5 mM 2-morpholinoethanesulfonic acid monohydrate (MES) were added to MS medium solidified with 0.8% agar to obtain a medium for callus induction and growth (to be referred to as “subculture medium”, pH 5.8). Leaf sheaths were collected from the cultured seedlings during week 4 of subculturing by peeling from the stump and using a roughly 2 cm section containing the peeled portion (leaf sheath base) as an explant. The explants were then planted in a flat box containing the subculture medium (50 ml). When the seedlings were cultured for 8 weeks in a dark location at 25° C., calluses were induced at the peeled portions of the planted seedlings. Embryogenic calluses were selected by subculturing these calluses in 0.2 g/container each of subculture medium and culturing for 1 month. The embryogenic calluses were able to be maintained for 2 years while retaining adventitious embryo induction potency by subculturing to the subculture medium every 4 weeks.
0.05 g aliquots of the embryonic calluses were planted in 500 ml Erlenmeyer flasks containing 160 ml of MS liquid medium containing sucrose (1%), fructose (1.1%), BA (0.1 ppm) and MES (5 mM) (pH 5.8, to be referred to as “differentiation medium”), followed by shake culturing (80 rpm) for 6 weeks at 25° C. in a dark location (day length: 16 hours, synthetic photon flux density: 22.8 μmole/m^2/sec) to obtain adventitious embryos. 0.2 g aliquots of these adventitious embryos were implanted in MS medium containing sucrose (3%) and obtained by solidifying with agar (0.8%) (pH 5.8, to be referred to as “germination medium”) followed by culturing for 8 weeks at 25° C. in a dark location (day length: 16 hours, photosynthetic photon flux density: 5.7 μmole/m^2/sec) to cause the adventitious embryos to germinate and obtain complete plants.
Embryogenic calluses subcultured in subculture medium were subcultured in fresh subculture medium followed by dropping a 3 ppm aqueous solution of KODA onto the calluses after 1 week (7 days), 2 weeks (14 days) or 3 weeks ([…]). The cultured calluses were planted in liquid differentiation medium 3 weeks after the start of subculturing, and the differentiated adventitious embryos were recovered 6 weeks later (FIG. 1), dehydrated and weighed after dehydrating. The adventitious embryos were then planted in germination medium and the numbers of resulting germinants were counted. The number of germinants per 1 g of dehydrated adventitious embryos was calculated from the measurement results (FIG. 2). […] The effect of KODA on inducing adventitious embryos in calluses was therefore thought to be specific to the time at which it is applied.

Assay [2] has the same test system. Description: Effect of KODA concentration on differentiation from Spathiphyllum callus to normally regenerated plant bodies. Particulars: 0.03, 0.3 or 3 ppm KODA dropped onto calluses; 8 weeks. The class given is cell-based. The text has this: Embryogenic calluses subcultured in subculture medium were planted in fresh differentiation medium followed by dropping a 0.03 ppm, 0.3 ppm or 3 ppm aqueous solution of KODA onto the calluses and recording the number of normally regenerated plant bodies 8 weeks later.

Assay [3] relates to Peucedanum japonicum greening tissue masses. Description: Effect of KODA on differentiation from callus (greening tissue masses) in Peucedanum japonicum. The class given is cell-based. Particulars: 1 μM KODA immersion. As to the method:
Peucedanum japonicum seeds from Yonaguni Island in Okinawa Prefecture were planted in artificial soil (Metro-Mix 360, Sun Grow Horticulture Canada Ltd.) and allowed to germinate under conditions of 20° C. and a 12-hour light-dark cycle. Two months later, the seedling plants were taken out, only the above ground portion was washed well with water, and after disinfecting with 70% alcohol (10 seconds) and a 10-fold dilution of sodium hypochlorite (7 minutes), the seedling plants were rinsed four times with pure water. The petiols were cut out and a cut measuring about 5 mm in length was aseptically made therein followed by planting in MS medium (Wako Pure Chemical Industries, solidified with 0.7% agar) containing 2,4-dichlorophenoxyacetic acid (0.022 mg/L) and kinetin (10.75 mg/L) solidified with 0.7% agar. The petiols were cultured for 2 months under conditions of 25° C. and a light-dark cycle of 12 hours to grow greening tissue masses containing incomplete leaf tissue. Two months later, the greening tissue masses were immersed in 1 μM KODA (KODA treatment group) or water (control group), and placed on MS medium (solidified with 0.7% agar) to which benzyladenine (BA) was added to a concentration of 2 ppm with indoleacetic acid (IAA) to a concentration of 0.1 ppm, 0.5 ppm or 1 ppm. As can be understood from the table, although a large number of differentiated greening plant bodies were obtained from greening tissue masses immersed in KODA, only a small number of differentiated plant bodies were obtained in the control group (water) in the case of 1.0 ppm indoleacetic acid+2.0 ppm benzyladenine.

Assay [4] deals with tobacco callus. As to the kind of experiment: Effect of KODA on differentiation from tobacco callus. The class given is cell-based, Nicotiana tabacum. The settings on record: 100 μM KODA immersion. As to the method:
After washing tobacco (Nicotiana tabacum) seeds with 70% ethanol, the surfaces of the seeds were sterilized for 3 minutes with 5% sodium hypochlorite and 0.05% Tween 20 followed by washing 5 times with sterilized water. After washing, the seeds were immersed in an aqueous KODA solution (100 μM) followed by planting the washed seeds on solid MS medium (Wako Pure Chemical Industries) containing 3% sucrose, 0.8% agar (Wako Pure Chemical Industries) and 2,4-dichlorophenoxyacetic acid (Kanto Chemical, 3 ppm) with kinetin (Nakarai Tesque, 0.1 ppm) and adjusted to pH 5.7 to induce calluses for 3 weeks under conditions of 25° C. and a light-dark cycle of 16 hours.
The above ground portions of the tobacco seedlings that underwent callus induction were removed, and only the root portions in which calluses were present were treated by immersing in 100 μM KODA (KODA treatment group) or water (control group) followed by inducing differentiation of the above ground portions under conditions of 25° C. and a light-dark cycle of 16 hours in solid differentiation medium obtained by adding 3% sucrose, 0.8% agar (Wako Pure Chemical Industries), […] (Nacalai Tesque, 0.2 ppm) and 6-benzyladenine (Nacalai Tesque, 2 ppm) to MS medium contained in plastic Petri dishes and adjusting to pH 5.7. Culturing in the differentiation medium was carried out by transferring to fresh differentiation medium after culturing for 2 weeks, namely for a total of 4 weeks. The resulting above ground portions were excised with a scalpel. The excised above ground portions were immersed in 100 μM aqueous KODA solution (KODA treatment group) or water (control group) followed by planting it in MS medium (100 mL) contained in culture bottles (CB-3, As One), which is prepared by adding sucrose (3%) to MS medium, and adjusting pH to 5.7, and is solidified with 0.8% agar, and then cultured for 4 weeks under conditions of 25° C. and light-dark cycle of 16 hours so as to differentiate below ground portions. […]

The mark [5] stands for this setting: normal individuals, freeze-dried.

As for `CC/C=C\C/C=C\CC(=O)C(O)CCCCCCCC(=O)O` (centres unmarked) [KODA, 9-hydroxy-10-oxo-12(Z),15(Z)-octadecadienoic acid], the “No. of germinants per flask” value in assay [1] (3 ppm KODA dropped 1 week after subculture) was 431; in assay [1] (3 ppm KODA dropped 2 weeks after subculture), 702; in assay [1] (3 ppm KODA dropped 3 weeks after subculture) it was 578. Moreover, the “Dehydrated adventitious embryo weight per flask” value in assay [1] (3 ppm aqueous KODA dropped onto calluses 1 week after subculture) is recorded as 7.1 g; in assay [1] (3 ppm aqueous KODA dropped onto calluses 2 weeks after subculture), 7.2 g; in assay [1] (3 ppm aqueous KODA dropped onto calluses 3 weeks after subculture), 6.8 g. Further, the “adventitious embryos recovered in comparison with control group (FIG. 1)” value in assay [1] (KODA treatment group, after two weeks) is reported as “A large number of adventitious embryos were recovered”. Also, in assay [2], the “number of redifferentiated (normally regenerated) plant bodies versus control (FIG. 4)” value is listed as “increase in comparison with a control group at each concentration”. The “No. of redifferentiated greening plant bodies” value came to 29 in assay [3] (IAA (0.1 ppm) + BA (2.0 ppm)), 20 in assay [3] (IAA (0.5 ppm) + BA (2.0 ppm)) and 27 in assay [3] (IAA (1.0 ppm) + BA (2.0 ppm)). In addition, the “normal individuals among the redifferentiated individuals” value in assay [4] (control group 30%) was found to be 60%. In assay [4] (setting [5]), the “dry weight of above ground portions versus control (FIG. 6)” value is listed as “no significant difference at a level of significance of 5%”. Besides, the “dry weight of below ground portions versus control (FIG. 6)” value in assay [4] (setting [5]) is reported as “a significant difference was confirmed at a level of significance of 5%”.
